Measurements: patent US20090285834A1, “NOVEL MEMORY CTL INDUCTION POTENTIATOR” (DAINIPPON SUMITOMO PHARMA CO., LTD., priority 2005, published 2009)

What was measured:
EG7 (OVA-expressing EL4) = type: in vivo, mouse (C57BL/6NCrj); conditions: with peptide vaccine; EG7 transplanted 21 days after peptide administration; followed to day 28; compared with PBS; FIG. 5
Procedure: Twenty-one days after peptide administration, 5×10^6 EG7 (OVA-expressing EL4: ATCC) suspended in 100 μL PBS was intradermally transplanted at the right flank using a 27 G injection needle after shaving. Tumor diameters (minimum diameter, maximum diameter) were measured using electronic calipers twice a week from 1 week to 28 days after EG7 transplantation, and tumor volumes were calculated.

cytokine production = conditions: in vivo; cited from earlier work
lymphocytes = conditions: in vivo; cited from earlier work

SMILES	tumor growth suppression (tumor volume) (EG7 (OVA-expressing EL4))	time from which cytokine production is exhibited after administration (cytokine production) [h]	time at which the reduction in lymphocytes reaches a peak (lymphocytes) [days]
CCOCc1nc2c(N)nc3ccccc3c2n1CC(C)(C)O [R848]	a slight suppression against proliferation was observed	≥ 1	–
O=P1(N(CCCl)CCCl)NCCCO1 (stereo not drawn) [cyclophosphamide]	–	–	3 to 4
